Reference: PubChem BioAssay (NCI)
“And” between values parts separate entries of the source, which are not always exact repeats. Equal values may be shown once.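 All cell lines were grown in 96-well plates and treated with compound for 48 hours. GI50 = concentration required for 50% inhibition of growth. TGI marks complete inhibition of growth.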

Assays:
Assay in all cases: NCI anticancer screen, dose series, 48 h
MALME-3M melanoma = tested on: MALME-3M melanoma
SW-620 colon = tested on: SW-620 colon
RPMI-8226 leukemia = tested on: RPMI-8226 leukemia
SNB-75 CNS = tested on: SNB-75 CNS
UACC-62 melanoma = tested on: UACC-62 melanoma
TK-10 renal = tested on: TK-10 renal
HL-60(TB) leukemia = tested on: HL-60(TB) leukemia
U251 CNS = tested on: U251 CNS
CAKI-1 renal = tested on: CAKI-1 renal
EKVX NSCLC = tested on: EKVX NSCLC

| SMILES | GI50 (MALME-3M melanoma) | TGI (MALME-3M melanoma) | GI50 (SW-620 colon) | TGI (SW-620 colon) | GI50 (RPMI-8226 leukemia) | TGI (RPMI-8226 leukemia) | GI50 (SNB-75 CNS) | TGI (SNB-75 CNS) | GI50 (UACC-62 melanoma) | TGI (UACC-62 melanoma) | GI50 (TK-10 renal) | TGI (TK-10 renal) | GI50 (HL-60(TB) leukemia) | TGI (HL-60(TB) leukemia) | GI50 (U251 CNS) | TGI (U251 CNS) | GI50 (CAKI-1 renal) | TGI (CAKI-1 renal) | TGI (EKVX NSCLC) | GI50 (EKVX NSCLC) |
| --- | --- | --- | --- | --- | --- | --- | --- | --- | --- | --- | --- | --- | --- | --- | --- | --- | --- | --- | --- | --- |
| CC(C)n1nc(-c2cc3cc(O)ccc3[nH]2)c2c(N)ncnc21 | 0.0269 µM | 0.265 µM | 1.31 µM | 14.2 µM | 0.0705 µM | 1.25 µM | 0.0377 µM | 0.502 µM | 0.161 µM | 0.962 µM | 0.178 µM | 2.31 µM | 1.26 µM | 5.77 µM | 0.565 µM | 10.9 µM | 0.262 µM | 1.77 µM | – | – |
| CC(C)(C)c1cc(Br)c(O)c(CN(Cc2cc(C(C)(C)C)cc(Br)c2O)C2CCCCC2)c1 | – | 24.1 µM | – | 25.8 µM | – | 27.9 µM | – | 20.9 µM | – | 25.3 µM | – | 29.2 µM | – | 35.8 µM | – | 26.8 µM | – | 24.7 µM | 27.9 µM | – |
| COC(=O)/C(=N\Nc1nnc(C)n1N)C(C#N)c1ccc(Cl)cc1 (configuration not stated) | – | > 100 µM | – | > 100 µM | – | > 100 µM | – | > 100 µM | – | > 100 µM | – | > 100 µM | – | – | – | > 100 µM | – | > 100 µM | > 100 µM | – |
| O=C1C2C3C=C4c5ccccc5N(c5ccccc5)C4(C2C(=O)N1Cc1ccccc1)C1C(=O)N(Cc2ccccc2)C(=O)C31 (configuration not stated) | – | > 100 µM | – | > 100 µM | – | – | – | > 100 µM | – | – | – | > 100 µM | – | > 100 µM | – | > 100 µM | – | – | – | – |
| Cc1cn(C2CC(N(O)Cc3ccccc3)C(CO[Si](C)(C)C(C)(C)C)O2)c(=O)[nH]c1=O (configuration not stated) | – | 31.8 µM | – | 69.2 µM and 34.1 µM | – | > 100 µM | 39 µM and 16.2 µM | > 100 µM and 29.8 µM | – | 26 µM and 30 µM | 37.8 µM and 18 µM | > 100 µM and 31.8 µM | – | > 100 µM | – | 38.6 µM and 28.4 µM | – | 76.1 µM and 31.1 µM | > 100 µM and 33.9 µM | – |
| CS/C(N)=N\NC(=O)CCC(=O)Nc1ccccc1C(F)(F)F | – | > 100 µM | – | > 100 µM | – | > 100 µM | – | > 83.1 µM | – | > 100 µM | – | > 100 µM | – | – | – | > 100 µM | – | > 100 µM | > 100 µM | – |
| O=C(NC1=CC(=O)c2ccccc2C1=O)c1ccccc1 | 1.7 µM | 3.27 µM | 1.15 µM | 2.82 µM | 0.355 µM | > 100 µM | 0.373 µM | 8.1 µM | 0.24 µM | 0.799 µM | 2.71 µM | 5.38 µM | 0.639 µM | 2.53 µM | 0.42 µM | 11.6 µM | 1.74 µM | 3.54 µM | 7.63 µM | 0.729 µM |
| Nn1c(=O)n(Cc2ccccc2)n(-c2ccccc2)c1=O | – | > 100 µM | – | > 100 µM | – | > 100 µM | – | > 100 µM | – | > 100 µM | – | > 100 µM | – | > 100 µM | – | > 100 µM | – | > 100 µM | – | – |
| COC(C(O)CO)C(O)C(O)C(=O)NNc1ccccc1 (configuration not stated) | – | > 100 µM | – | > 100 µM | – | > 100 µM | – | > 100 µM | – | > 100 µM | – | > 100 µM | – | > 100 µM | – | > 100 µM | – | > 100 µM | > 100 µM | – |
| CN1C(=O)c2cccc3cc([N+](=O)[O-])cc(c23)C1=O | – | > 10 µM | – | > 10 µM | – | > 10 µM | – | > 10 µM | – | > 10 µM | – | > 10 µM | – | > 10 µM | – | > 10 µM | – | > 10 µM | – | – |
| CC1(C)SCc2nc3ncccc3n21 | – | > 100 µM | – | > 100 µM | – | > 100 µM | – | > 100 µM | – | > 100 µM | – | > 100 µM | – | > 100 µM | – | > 100 µM | – | > 100 µM | > 100 µM | – |
| CCOc1ccccc1NC(=O)CC(C(=O)OC)C(=O)C(=O)OC (configuration not stated) | – | > 100 µM | – | > 100 µM | – | > 100 µM | – | – | – | > 100 µM | – | > 100 µM | – | > 100 µM | – | > 100 µM | – | > 100 µM | > 100 µM | – |
| COc1ccccc1CNCCCN1C(=O)c2ccc3c4c(ccc(c24)C1=O)C(=O)N(CCCOCCCCOCCCN)C3=O | – | – | 0.357 µM | 1.54 µM | 1.72 µM | 5.21 µM | 1.79 µM | 3.6 µM | 0.645 µM | 1.96 µM | 1.97 µM | 3.93 µM | 0.668 µM | 2.06 µM | 1.23 µM | 2.69 µM | 1.83 µM | 5.13 µM | 2.52 µM | 1.19 µM |
| Cc1cn(C2CC(O)C(CO)O2)c(=O)n2nnnc12 (configuration not stated) | – | > 100 µM | – | > 100 µM | – | > 100 µM | – | > 100 µM | – | > 100 µM | – | > 100 µM | – | > 100 µM | – | > 100 µM | – | – | > 100 µM | – |
| CCCN1CCC(=O)N(CCC(F)(F)C(F)(F)C(F)(F)C(F)(F)C(F)(F)C(F)(F)F)C1=S | – | > 100 µM | – | > 100 µM | – | – | – | > 100 µM | – | > 100 µM | – | > 100 µM | – | > 100 µM | – | > 100 µM | – | > 100 µM | > 100 µM | – |
| c1ccc(CNn2nnc3ccccc32)cc1 | – | > 100 µM | – | > 100 µM | – | > 100 µM | – | > 100 µM | – | > 100 µM | – | > 100 µM | – | > 100 µM | – | – | – | > 100 µM | > 100 µM | – |
| Cc1ccc(C2=C(c3ccccc3)C(Br)(c3ccc(C)cc3)C(c3ccccc3)=C2c2ccc(C)cc2)cc1 | – | > 100 µM | – | > 100 µM | – | > 100 µM | – | – | – | > 100 µM | – | > 100 µM | – | > 100 µM | – | > 100 µM | – | > 100 µM | > 100 µM | – |
| Cc1cc(Cl)ccc1N=C1NC(=O)C(CC(=O)Nc2ccc([N+](=O)[O-])cc2[N+](=O)[O-])S1 (configuration not stated) | – | 73.2 µM | – | > 100 µM | – | 53.6 µM | – | 44.2 µM | – | 64.7 µM | – | > 100 µM | – | – | – | 59.9 µM | – | 54.3 µM | > 100 µM | – |
| CCCCCCCC/C=C/CCCCCCCC(=O)OC[C@H]1O[C@@H](n2ccc(N)nc2=O)C(F)(F)[C@@H]1O | 0.0463 µM | > 100 µM | 0.0759 µM | > 100 µM | 0.128 µM | > 100 µM | 0.36 µM | > 66.1 µM | 0.0331 µM | > 100 µM | 2.38 µM | > 100 µM | 0.0217 µM | 28 µM | < 0.016 µM | 25.3 µM | < 0.0135 µM | 3.59 µM | – | – |
